ChEMBL document CHEMBL1201862, “PubChem BioAssay data set” (2004)
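These data come from cells grown in 96-well plates and exposed to compound for 48 hours at five concentrations. GI50 is the concentration that inhibits growth by half.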 Active and inactive are the calls of the source. Rule as the data show it: active = GI50 up to about 1.1 µM and inactive = higher.

Experiments:
Experiment in all cases: NCI anticancer screen, dose series, 48 h
SF-268 = test system: SF-268
RXF 393 = test system: RXF 393
KM12 = test system: KM12
CCRF-CEM = test system: CCRF-CEM
NCI-H522 = test system: NCI-H522
OVCAR-5 = test system: OVCAR-5
HOP-62 = test system: HOP-62
MOLT-4 = test system: MOLT-4
K562 = test system: K562
HL-60 = test system: HL-60
SF-539 = test system: SF-539
A498 = test system: A498
EKVX = test system: EKVX
M14 = test system: M14
ACHN = test system: ACHN
OVCAR-4 = test system: OVCAR-4
PC-3 = test system: PC-3
SK-MEL-5 = test system: SK-MEL-5
MCF7 = test system: MCF7

Measured: GI50

CC(C)CC(=O)NS(=O)(=O)c1ccccc1
inactive: SF-268 > 100 µM | RXF 393 > 100 µM | KM12 > 100 µM | CCRF-CEM > 100 µM | NCI-H522 > 100 µM | OVCAR-5 > 100 µM | HOP-62 > 100 µM | MOLT-4 > 100 µM | K562 > 100 µM | HL-60 > 100 µM | SF-539 > 100 µM | A498 > 100 µM | EKVX > 100 µM | M14 > 100 µM | ACHN > 100 µM | OVCAR-4 > 100 µM

O=C(O)c1ccc(-c2nc3cc(Cl)ccc3[nH]2)cc1
inactive: RXF 393 > 100 µM | KM12 > 100 µM | CCRF-CEM > 100 µM | NCI-H522 > 100 µM | PC-3 > 100 µM | HOP-62 > 100 µM | MOLT-4 > 100 µM | K562 > 100 µM | HL-60 > 100 µM | SF-539 > 100 µM | SK-MEL-5 > 100 µM | EKVX > 100 µM | MCF7 > 100 µM | M14 > 100 µM

CCSC1(SCC)CCN(/C=N/C(C)(C)C)C1
inactive: SF-268 > 100 µM | RXF 393 67.8 µM | KM12 > 100 µM | CCRF-CEM 76.4 µM | NCI-H522 > 100 µM | OVCAR-5 > 100 µM | HOP-62 > 100 µM | MOLT-4 > 100 µM | K562 > 100 µM | HL-60 29.7 µM | SF-539 > 100 µM | SK-MEL-5 > 100 µM | A498 > 100 µM | EKVX > 100 µM | M14 > 100 µM | ACHN > 100 µM | OVCAR-4 > 100 µM

CCCC12Cc3c(OC)ccc(OC)c3CC(Cc3c(OC)ccc(OC)c31)C2=O (stereo not drawn)
inactive: SF-268 > 100 µM | RXF 393 > 100 µM | KM12 > 100 µM | CCRF-CEM > 100 µM | NCI-H522 81.5 µM | OVCAR-5 > 100 µM | HOP-62 > 100 µM | MOLT-4 7.36 µM | K562 > 100 µM | HL-60 7.21 µM | SF-539 > 100 µM | SK-MEL-5 73.5 µM | A498 > 100 µM | EKVX > 100 µM | M14 > 100 µM | ACHN > 100 µM | OVCAR-4 18.8 µM

COc1ccc(-c2cc(=O)c3c(OC)cccc3o2)c(OC)c1OC
inactive: SF-268 > 100 µM | RXF 393 39 µM | KM12 > 100 µM | CCRF-CEM > 100 µM | NCI-H522 > 100 µM | OVCAR-5 > 100 µM | HOP-62 > 100 µM | MOLT-4 54.6 µM | K562 68.5 µM | HL-60 63.1 µM | SF-539 > 100 µM | SK-MEL-5 87.7 µM | A498 > 100 µM | M14 > 100 µM | ACHN > 100 µM | OVCAR-4 > 100 µM

C=C1c2[nH]c3c([N+](=O)[O-])c(OC)ccc3c2CCN1C(C)=O
inactive: SF-268 28.7 µM | RXF 393 > 100 µM | KM12 > 100 µM | CCRF-CEM > 100 µM | NCI-H522 > 100 µM | OVCAR-5 > 100 µM | HOP-62 > 100 µM | MOLT-4 > 100 µM | K562 > 100 µM | HL-60 > 100 µM | SF-539 > 100 µM | A498 > 100 µM | EKVX > 100 µM | M14 > 100 µM | ACHN > 100 µM | OVCAR-4 > 100 µM

CCOc1cc[n+]([C-](C#N)C#N)cc1
inactive: SF-268 > 100 µM | RXF 393 > 100 µM | KM12 > 100 µM | CCRF-CEM > 100 µM | NCI-H522 > 100 µM | OVCAR-5 > 100 µM | HOP-62 > 100 µM | MOLT-4 > 100 µM | K562 > 100 µM | HL-60 > 100 µM | SF-539 > 100 µM | SK-MEL-5 > 100 µM | A498 > 100 µM | EKVX > 100 µM | M14 > 100 µM | OVCAR-4 > 100 µM

Cc1ccc(N(C(=O)CC(=O)N2N=C(c3ccccc3)C(/N=N/c3ccc([N+](=O)[O-])cc3)C2=O)C(=O)c2ccc(Cl)cc2)cc1 (stereo not drawn)
inactive: SF-268 9.04 µM | RXF 393 5.16 µM | KM12 20.4 µM | CCRF-CEM 5.27 µM | NCI-H522 3.65 µM | OVCAR-5 20.5 µM | HOP-62 10.3 µM | MOLT-4 > 42.1 µM | K562 24.7 µM | HL-60 19.2 µM | SF-539 19.8 µM | SK-MEL-5 16.9 µM | A498 6.14 µM | EKVX 99.5 µM | M14 5.69 µM | ACHN 28.4 µM | OVCAR-4 36.1 µM

O=C(NNc1ccccc1)/C(=C/c1ccc2c(c1)OCO2)NC(=O)c1ccccc1
inactive: SF-268 > 100 µM | RXF 393 > 100 µM | KM12 > 100 µM | CCRF-CEM 31 µM | NCI-H522 33.3 µM | OVCAR-5 > 100 µM | HOP-62 > 100 µM | MOLT-4 55 µM | K562 > 100 µM | HL-60 > 100 µM | SF-539 > 100 µM | SK-MEL-5 > 100 µM | A498 > 100 µM | EKVX > 100 µM | M14 > 100 µM | ACHN > 100 µM | OVCAR-4 66.2 µM

O=c1c2ccc(Cl)cc2oc2c(CNc3ccc(S(=O)(=O)Nc4ncccn4)cc3)cccc12
inactive: KM12 > 100 µM | CCRF-CEM > 100 µM | NCI-H522 > 100 µM | OVCAR-5 > 100 µM | PC-3 > 100 µM | HOP-62 90.8 µM | MOLT-4 > 100 µM | K562 > 100 µM | HL-60 > 100 µM | SF-539 94.4 µM | SK-MEL-5 > 100 µM | A498 > 100 µM | EKVX > 100 µM | MCF7 > 100 µM | M14 > 100 µM | ACHN > 100 µM | OVCAR-4 > 100 µM

[N-]=[N+]=NC1=C(N=[N+]=[N-])c2cccc3cccc(c23)C1=O
inactive: SF-268 > 100 µM | RXF 393 65.6 µM | KM12 76.2 µM | CCRF-CEM 67.9 µM | NCI-H522 > 100 µM | OVCAR-5 > 100 µM | PC-3 > 100 µM | HOP-62 49.7 µM | MOLT-4 39.8 µM | K562 > 100 µM | SF-539 > 100 µM | SK-MEL-5 > 100 µM | A498 > 100 µM | EKVX > 100 µM | MCF7 > 100 µM | M14 > 100 µM | ACHN > 100 µM | OVCAR-4 > 100 µM

O=C(Cc1ccccc1)NN1C(=O)C(Cl)C1c1cccc([N+](=O)[O-])c1 (stereo not drawn)
inactive: SF-268 44.7 µM | RXF 393 25.6 µM | KM12 > 90.4 µM | CCRF-CEM 2.33 µM | NCI-H522 1.91 µM | OVCAR-5 > 79.1 µM | HOP-62 > 100 µM | MOLT-4 12.4 µM | K562 21.3 µM | HL-60 10.4 µM | SF-539 80 µM | SK-MEL-5 39.9 µM | A498 > 100 µM | EKVX 34.8 µM | M14 46.7 µM | ACHN > 60.5 µM | OVCAR-4 29.8 µM
